{
  "source": "ChEMBL document CHEMBL3244076",
  "about": "“N,N'-(Phenylene)dioxamic acids and their esters as antiallergy agents” (1978)",
  "format_in_all_cases": "functional",
  "key": {"[1]": {"test_system": "Rattus norvegicus", "experiment": "Antiallergic activity in iv dosed anti-egg albumin homocytotropic antibody-sensitized Sprague-Dawley rat assessed as inhibition of passive cutaneous anaphylaxis reaction administered at the time of antigen egg albumin challenge"}, "[2]": {"test_system": "Rattus norvegicus", "experiment": "Antiallergic activity in anti-egg albumin homocytotropic antibody-sensitized Sprague-Dawley rat assessed as inhibition of passive cutaneous anaphylaxis reaction at 50 mg/kg, po administered 5 mins prior to antigen egg albumin challenge"}, "[3]": {"test_system": "Rattus norvegicus", "experiment": "Antiallergic activity in anti-egg albumin homocytotropic antibody-sensitized Sprague-Dawley rat assessed as inhibition of passive cutaneous anaphylaxis reaction at 50 mg/kg, po administered 120 mins prior to antigen egg albumin challenge"}, "[4]": {"test_system": "Rattus norvegicus", "experiment": "Antiallergic activity in po dosed anti-egg albumin homocytotropic antibody-sensitized Sprague-Dawley rat assessed as lowest concentration required for >20% inhibition of passive cutaneous anaphylaxis reaction administered prior to antigen egg albumin challenge"}, "[5]": {"test_system": "Rattus norvegicus", "experiment": "Antiallergic activity in anti-egg albumin homocytotropic antibody-sensitized Sprague-Dawley rat assessed as time of peak action for inhibition of passive cutaneous anaphylaxis reaction at 50 mg/kg, po administered prior to antigen egg albumin challenge"}, "[6]": {"test_system": "Rattus norvegicus", "experiment": "Antiallergic activity in anti-egg albumin homocytotropic antibody-sensitized Sprague-Dawley rat assessed as inhibition of passive cutaneous anaphylaxis reaction at 50 mg/kg, po administered 60 mins prior to antigen egg albumin challenge"}, "[7]": {"test_system": "Rattus norvegicus", "experiment": "Antiallergic activity in anti-egg albumin homocytotropic antibody-sensitized Sprague-Dawley rat assessed as inhibition of passive cutaneous anaphylaxis reaction at 50 mg/kg, po administered 20 mins prior to antigen egg albumin challenge"}, "[8]": {"test_system": "Rattus norvegicus", "experiment": "Antiallergic activity in anti-egg albumin homocytotropic antibody-sensitized Sprague-Dawley rat assessed as inhibition of passive cutaneous anaphylaxis reaction at 10 mg/kg, po administered 5 mins prior to antigen egg albumin challenge"}, "[9]": {"test_system": "Rattus norvegicus", "experiment": "Antiallergic activity in anti-egg albumin homocytotropic antibody-sensitized Sprague-Dawley rat assessed as inhibition of passive cutaneous anaphylaxis reaction at 10 mg/kg, po administered 20 mins prior to antigen egg albumin challenge"}, "[10]": {"test_system": "Rattus norvegicus", "experiment": "Antiallergic activity in anti-egg albumin homocytotropic antibody-sensitized Sprague-Dawley rat assessed as inhibition of passive cutaneous anaphylaxis reaction at 10 mg/kg, po administered 60 mins prior to antigen egg albumin challenge"}, "[11]": {"test_system": "Rattus norvegicus", "experiment": "Ratio of disodium cromoglycate ED50 to compound ED50 for antiallergic activity in iv dosed anti-egg albumin homocytotropic antibody-sensitized Sprague-Dawley rat by passive cutaneous anaphylaxis reaction analysis"}, "[12]": {"test_system": "Rattus norvegicus", "experiment": "Antiallergic activity in anti-egg albumin homocytotropic antibody-sensitized Sprague-Dawley rat assessed as inhibition of passive cutaneous anaphylaxis reaction at 0.001 mg/kg, iv administered at the time of antigen egg albumin challenge"}, "[13]": {"test_system": "Rattus norvegicus", "experiment": "Antiallergic activity in anti-egg albumin homocytotropic antibody-sensitized Sprague-Dawley rat assessed as inhibition of passive cutaneous anaphylaxis reaction at 0.01 mg/kg, iv administered at the time of antigen egg albumin challenge"}},
  "data": [
    {"smiles": "O=C([O-])c1cc(=O)c2c(OCC(O)COc3cccc4oc(C(=O)[O-])cc(=O)c34)cccc2o1.[Na+].[Na+]", "note": "[CROMOLYN SODIUM]", "values": [
      {"measurement": "ED50", "setting": "[1]", "value": 2.5, "unit": "mg/kg"}
    ]},
    {"smiles": "CCOC(=O)C(=O)Nc1cccc(NC(=O)C(=O)OCC)c1", "values": [
      {"measurement": "inhibition in vivo at 50 mg/kg", "setting": "[2]", "value": 3, "unit": "%"},
      {"measurement": "inhibition in vivo at 50 mg/kg", "setting": "[3]", "value": 29, "unit": "%"},
      {"measurement": "LED", "setting": "[4]", "value": 1, "unit": "mg/kg"},
      {"measurement": "Time", "setting": "[5]", "value": 20, "unit": "min"},
      {"measurement": "inhibition in vivo at 50 mg/kg", "setting": "[6]", "value": 14, "unit": "%"},
      {"measurement": "inhibition in vivo at 50 mg/kg", "setting": "[7]", "value": 94, "unit": "%"}
    ]},
    {"smiles": "CCOC(=O)C(=O)Nc1cc(C#N)cc(NC(=O)C(=O)OCC)c1Cl", "note": "[LODOXAMIDE ETHYL]", "values": [
      {"measurement": "inhibition in vivo at 50 mg/kg", "setting": "[2]", "value": 100, "unit": "%"},
      {"measurement": "LED", "setting": "[4]", "value": 0.1, "unit": "mg/kg"},
      {"measurement": "Time", "setting": "[5]", "value": 5, "unit": "min"},
      {"measurement": "inhibition in vivo at 50 mg/kg", "setting": "[6]", "value": 0, "unit": "%"},
      {"measurement": "inhibition in vivo at 50 mg/kg", "setting": "[7]", "value": 31, "unit": "%"}
    ]},
    {"smiles": "CCOC(=O)C(=O)Nc1ccc(C#N)c(NC(=O)C(=O)OCC)c1", "values": [
      {"measurement": "inhibition in vivo at 10 mg/kg", "setting": "[8]", "value": 7, "unit": "%"},
      {"measurement": "inhibition in vivo at 10 mg/kg", "setting": "[9]", "value": 19, "unit": "%"},
      {"measurement": "inhibition in vivo at 10 mg/kg", "setting": "[10]", "value": 19, "unit": "%"}
    ]},
    {"smiles": "N#Cc1cc(NC(=O)C(=O)O)c(Cl)c(NC(=O)C(=O)O)c1", "note": "[LODOXAMIDE]", "values": [
      {"measurement": "Ratio ED50", "setting": "[11]", "value": 2500},
      {"measurement": "inhibition in vivo at 0.001 mg/kg", "setting": "[12]", "value": 50, "unit": "%"},
      {"measurement": "inhibition in vivo at 0.01 mg/kg", "setting": "[13]", "value": 94, "unit": "%"}
    ]}
  ]
}
